Measurements as given in patent US8088806B2 (Achillion Pharmaceuticals, Inc., priority 2005, dated 2012).

Tested on: HCV replicon
Experiment: Replicon based assay of HCV replication inhibition (NPT ELISA)
Assay type: cell-based, Hepatitis C virus
Conditions: Hepatitis C virus, Huh-7, 72 h, Table I; Huh-7 HCV replicon-containing cells, three days; read-out: Activity
Description: Compounds claimed herein are tested for the ability to inhibit viral replication of the Hepatitis C replicon in cultured cells in which the HCV replicon construct has been incorporated. The HCV replicon system was described by Bartenschlager, et. al (Science, 285, pp. 110-113 (1999)). The replicon system is predictive of in vivo anti-HCV activity; compounds that are active in humans uniformly evidence activity in the replicon assay.
In this assay HCV replicon containing cells are treated with different concentrations of the test compound to ascertain the ability of the test compound to suppress replication of the HCV replicon. As a positive control, HCV replicon-containing cells are treated with different concentrations of interferon alpha, a known inhibitor of HCV replication. The replicon assay system includes Neomycin Phosphotransferase (NPT) as a component of the replicon itself in order to detect the transcription of replicon gene products in the host cell. Cells in which the HCV replicon is actively replicating have high levels of NPT; the level of NPT is proportional to HCV replication. […] The NPT level of each sample is measured using a captured ELISA.
A protocol for testing compounds for the ability to inhibit viral replication of the Hepatitis C replicon cultured cells in which the replicon construct has been incorporated, follows.
The HCV replicon contains, 5′-3′, the HCV-IRES, the neomycin phosphotransferase (neo) gene, the IRES of encephalomyocarditis virus, which directs translation of HCV sequences NS3 to NS5B, and the 3′-NTR. The sequence of the HCV replicon has been deposited in GenBank (Accession no. AJ242652).
The replicon is transfected into Huh-7 cells using standard methods such as electroporation.
The equipment and materials include, but are not limited to, Huh-7 HCV replicon-containing cells, maintenance media (DMEM (Dulbecco's modified Eagle media) supplemented with 10% FBS, L-glutamine, non-essential amino acids, penicillin (100 units/ml), streptomycin (100 micrograms/ml), and 500 micrograms/ml of Geneticin (G418), screening media (DMEM supplemented with 10% FBS, L-glutamine, non-essential amino acids, penicillin (100 units/ml) and streptomycin (100 micrograms/ml)), 96 well tissue culture plates (flat bottom), 96 well plates (U bottom for drug dilution), Interferon alpha for positive control, fixation reagent (such as methanol: acetone), primary antibody (rabbit anti-NPTII), secondary antibody: Eu-N1l, and enhancement solution.
The cells are then seeded onto 96-well plates at a density of 6000-7500 cells/100 microliters/well (6-7.5×10^5 cells/10 ml/plate). The plates are then incubated at 37° C. in a 5% CO2 incubator.
HCV replicon-containing cells are rinsed with once PBS once; 2 mls of trypsin are then added. Cells are incubated at 37° C. in a 5% CO2 incubator for 3-5 minutes. 10 mls of complete medium is added to stop the reaction. Cells are blown gently, put into a 15 ml tube, and spun at 1200 rpm for four minutes. The trypsin/medium solution is removed and 5 mls of medium (500 ml DMEM (high glucose)) from BRL catalog #12430-054; 50 mls 10% FBS, 5% Geneticin G418 (50 mg/ml, BRL catalog #10131-035), 5 ml MEM non-essential amino acids (100×BRL #11140-050) and 5 ml pen-strep (BRL # 15140-148) is added. The cells and media are mixed carefully
Cells are plated with screening medium (500 ml DMEM (BRL #21063-029), 50 ml FBS (BRL #10082-147) and 5 ml MEM non-essential amino acid (BRL #11140-050) at 6000-7500 cells/100 μl/well of 96 well plate (6-7.5×10^5 cells/10 ml/plate). Plates are placed into 37° C. 5% CO2 incubator overnight.
The following morning, drugs (test compounds or interferon alpha) are diluted in 96 well U bottom plates with media or DMSO/media, depending on the final concentration chosen for screening. Generally for 6 concentrations of each test compounds ranging from 10 micromolar to 0.03 micromolar are applied. […]

SMILES	EC50 [µM]
CCCCc1ccc(CNc2nc(-c3cccnc3)cs2)cc1 [compound 82, N-(4-butylbenzyl)-4-(pyridin-3-yl)thiazol-2-amine]	> 10
c1ccc(Oc2cccc(CCNc3nc(-c4cccnc4)cs3)c2)cc1 [compound 83, N-(3-phenoxyphenethyl)-4-(pyridin-3-yl)thiazol-2-amine]	> 10
c1ccc(Oc2ccc(CCNc3nc(-c4cccnc4)cs3)cc2)cc1 [compound 84, N-(4-phenoxyphenethyl)-4-(pyridin-3-yl)thiazol-2-amine]	> 10
CCCCCOc1ccc(Nc2nc(-c3cccnc3)cs2)cc1 [compound 85, N-(4-(pentyloxy)phenyl)-4-(pyridin-3-yl)thiazol-2-amine]	< 1
CCCCCc1ccc(Nc2nc(-c3cccnc3)cs2)cc1 [compound 86, N-(4-pentylphenyl)-4-(pyridin-3-yl)thiazol-2-amine]	< 1
c1ccc(COc2cccc(Nc3nc(-c4cccnc4)cs3)c2)cc1 [compound 87, N-(3-(benzyloxy)phenyl)-4-(pyridin-3-yl)thiazol-2-amine]	< 1
c1ccc(Oc2cccc(Nc3nc(-c4cccnc4)cs3)c2)cc1 [compound 88, N-(3-phenoxyphenyl)-4-(pyridin-3-yl)thiazol-2-amine]	< 1
c1ccc(CCOc2cccc(Nc3nc(-c4cccnc4)cs3)c2)cc1 [compound 89]	< 1
CCCCCCOc1ccc(Nc2nc(-c3cccnc3)cs2)cc1 [compound 90, N-(4-(hexyloxy)phenyl)-4-(pyridin-3-yl)thiazol-2-amine]	< 1
CCCCOc1ccc(Nc2nc(-c3cccnc3)cs2)cc1 [compound 91, N-(4-butoxyphenyl)-4-(pyridin-3-yl)thiazol-2-amine]	< 1
CCCCCCCOc1ccc(Nc2nc(-c3cccnc3)cs2)cc1 [compound 92, N-(4-(heptyloxy)phenyl)-4-(pyridin-3-yl)thiazol-2-amine]	< 1
CCCCCCCCOc1ccc(Nc2nc(-c3cccnc3)cs2)cc1 [compound 93, N-(4-(octyloxy)phenyl)-4-(pyridin-3-yl)thiazol-2-amine]	< 1
CCCCCCCCc1ccc(Nc2nc(-c3cccnc3)cs2)cc1 [compound 95, N-(4-octylphenyl)-4-(pyridin-3-yl)thiazol-2-amine]	< 1
CCCCc1ccc(Nc2nc(-c3cccnc3)cs2)cc1 [compound 96, N-(4-butylphenyl)-4-(pyridin-3-yl)thiazol-2-amine]	1 to 10
c1ccc(Cc2cccc(Nc3nc(-c4cccnc4)cs3)c2)cc1 [compound 97, N-(3-benzylphenyl)-4-(pyridin-3-yl)thiazol-2-amine]	< 1
N#CCc1ccc(Nc2nc(-c3cccnc3)cs2)cc1 [compound 98, 2-(4-(4-(pyridin-3-yl)thiazol-2-ylamino)phenyl)acetonitrile]	> 10
c1cncc(-c2csc(Nc3ccc(N4CCOCC4)cc3)n2)c1 [compound 99, N-(4-morpholinophenyl)-4-(pyridin-3-yl)thiazol-2-amine]	> 10
c1cncc(-c2csc(Nc3ccc(C4CCCCC4)cc3)n2)c1 [compound 100, N-(4-cyclohexylphenyl)-4-(pyridin-3-yl)thiazol-2-amine]	< 1
c1cncc(-c2csc(Nc3ccc(N4CCCCC4)cc3)n2)c1 [compound 101, N-(4-(piperidin-1-yl)phenyl)-4-(pyridin-3-yl)thiazol-2-amine]	> 10
c1cncc(-c2csc(Nc3ccc(-c4csnn4)cc3)n2)c1 [compound 102, N-(4-(1,2,3-thiadiazol-4-yl)phenyl)-4-(pyridin-3-yl)thiazol-2-amine]	> 10
c1cncc(-c2csc(Nc3ccc(-n4ccnc4)cc3)n2)c1 [compound 103, N-(4-(1H-imidazol-1-yl)phenyl)-4-(pyridin-3-yl)thiazol-2-amine]	> 10
c1cncc(-c2csc(Nc3ccc4c(c3)Cc3ccccc3-4)n2)c1 [compound 104, N-(9H-fluoren-7-yl)-4-(pyridin-3-yl)thiazol-2-amine]	1 to 10
